The results in this text go back to ChEMBL document CHEMBL1201862, “PubChem BioAssay data set” (2004).

Holding throughout (assay): inhibition of tumour cell growth, NCI panel, 48 h
For assay [1], the system named is BT-549.
For assay [2], the system named is NCI/ADR-RES.
Assay [3] deals with MCF7.
For assay [4], the system named is MDA-MB-231.
Assay [5] deals with Hs-578T.

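Compound exposure: 48 hours, 5 concentrations, 96-well plates. The concentration for 50% growth inhibition is given as GI50.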 The source made the active and inactive calls. Cut-off read from the data, not from the text of the source: active = GI50 up to about 1.1 µM and inactive = higher.

For `Cc1nc(Nc2ccc(Cl)c(Cl)c2)sc1C(=O)/C=C/c1ccc2c(c1)OCO2`, the GI50 in assay [1] was 21.5 µM (inactive); in assay [2] it was 34.4 µM (inactive); in assay [3] it was 25.1 µM (inactive).
Take `CC(C)(C)c1ccc(O)c(CN(Cc2c(O)ccc3ccccc23)C2CCCCC2)c1`: the GI50 in assay [1] is 19.6 µM (inactive); in assay [4], 16.8 µM (inactive); in assay [2], 16.3 µM (inactive); in assay [5], 27.4 µM (inactive); in assay [3], 17.1 µM (inactive).
For `CCN(CC)CC[n+]1ccc2c(C)c3[nH]c4ccccc4c3c(C)c2c1`, the GI50 was 1.3 µM (inactive) in assay [1], 0.65 µM (active) in assay [4], 0.0405 µM (active) in assay [5] and 0.522 µM (active) in assay [3].
For `N#CC(c1ccc(O)cc1)N1CCN(C(C#N)c2ccc(O)cc2)CC1` (configuration not stated), the GI50 in assay [1] is > 72.3 µM (inactive); in assay [4], 21.9 µM (inactive); in assay [2] it was 40.8 µM (inactive); in assay [5] it was 27.7 µM (inactive); in assay [3], > 100 µM (inactive).
On to `CC1=C(C)CC2C(=O)N(c3cc(C(C)(C)C)ccc3C(C)(C)C)C(=O)C2C1` (configuration not stated), for which the GI50 in assay [1] is 24.7 µM (inactive); in assay [4], > 100 µM (inactive); in assay [2], > 100 µM (inactive); in assay [5] it was 5.82 µM (inactive); in assay [3], 0.776 µM (active).
As to `CCOC(=O)C(NC(=O)OC(C)(C)C)C(=O)OCC`, the GI50 in assay [1], in assay [2], in assay [5] and in assay [3] was > 100 µM (inactive) in each case.
As to `CC(=O)OCC1OC(NC(=S)Nn2c(=O)[nH]c3ccccc3c2=O)C(OC(C)=O)C(OC(C)=O)C1OC(C)=O` (configuration not stated), the GI50 in assay [1], in assay [4], in assay [2], in assay [5] and in assay [3] was > 100 µM (inactive) in each case.
For the molecule `N#Cc1nc(C#N)n(S(=O)(=O)c2ccccc2)c1NS(=O)(=O)c1ccccc1`, the GI50 in assay [1], in assay [4], in assay [2], in assay [5] and in assay [3] was > 100 µM (inactive) throughout.
On to `c1ncn(C23C4C5C6C4C2C6C53)n1` (configuration not stated), for which the GI50 in assay [4], in assay [2], in assay [5] and in assay [3] was > 100 µM (inactive) in each case.
In the case of `CCOC(=O)Nn1c(CC#N)nnc1Cc1ccccc1`, the GI50 in assay [1], in assay [4], in assay [2], in assay [5] and in assay [3] was > 100 µM (inactive) in each case.
For the molecule `O=C1N[C@H]2c3c(Cl)sc(Cl)c3/C(=N/O)[C@H]2O1`, the GI50 in assay [1], in assay [4], in assay [2] and in assay [3] was > 100 µM (inactive) each time.
With `COc1ccc(N/N=C2\CCOc3ccc(C)cc3C2=O)cc1`, the GI50 in assay [1] is 24.1 µM (inactive); in assay [4] it was 14.4 µM (inactive); in assay [2] it was 9.4 µM (inactive); in assay [5] it was 25.1 µM (inactive); in assay [3], 14.4 µM (inactive).
With `CN1Cc2ccccc2S(=O)(=O)n2cccc2C1=O`, the GI50 in assay [1], in assay [4], in assay [5] and in assay [3] was > 100 µM (inactive) each time.
On to `COC(=O)c1ccccc1C1CN=NC12Cc1ccc(C)cc1C2=O` (configuration not stated), for which the GI50 in assay [1] is 47.9 µM (inactive); in assay [4], > 100 µM (inactive); in assay [2] it was 36.6 µM (inactive); in assay [5], 41.5 µM (inactive); in assay [3] it was 72.8 µM (inactive).
Take `Cc1ccc(-c2nc(N/N=C/c3ccc(O)cc3)c3ccccc3n2)cc1`: the GI50 in assay [1] was 28 µM (inactive); in assay [4], 19.4 µM (inactive); in assay [2], 20.4 µM (inactive); in assay [5] it was 35.7 µM (inactive); in assay [3] it was 10.2 µM (inactive).
In the case of `COc1cc(OC)c(OC)cc1/C=C/c1cc[n+](C)c2ccccc12`, the GI50 in assay [2] was > 100 µM (inactive); in assay [3], 49.2 µM (inactive).
Turning to `CC1(C)CC(=O)c2[nH]c3ccccc3c2CC(=O)NCCc2cn1cn2`, the GI50 in assay [1] was > 100 µM (inactive); in assay [4], 88.1 µM (inactive); in assay [2] it was > 100 µM (inactive); in assay [5], 33.5 µM (inactive); in assay [3], > 100 µM (inactive).
With `CCN(CC)C1Oc2cc3c(cc2C(c2ccc(OC)cc2)C1C)OCO3` (configuration not stated), the GI50 in assay [1] is 20.8 µM (inactive); in assay [4], 23.4 µM (inactive); in assay [5] it was 18.7 µM (inactive); in assay [3], 20.9 µM (inactive).
For the molecule `Cc1ccc(S(=O)(=O)CC2CCCn3c2c(C#N)c2ccccc23)cc1` (configuration not stated), the GI50 is > 100 µM (inactive) in assay [1]; > 100 µM (inactive) in assay [4]; 65.5 µM (inactive) in assay [2]; > 100 µM (inactive) in assay [5]; > 100 µM (inactive) in assay [3].
As to `CC1(C)C[C@H](O)[C@H](O)[C@]23C(=O)O[C@H](O)[C@H]2C(C=O)=CC[C@@H]13`, the GI50 in assay [1], in assay [4], in assay [2], in assay [5] and in assay [3] was > 100 µM (inactive) each time.
Turning to `CC(=O)NC1C(OCc2ccccc2)OC(CO)C(O)C1OC(C)C(=O)NC(C(=O)N[C@@H](CCC(=O)NCCNCCNc1c2ccccc2nc2cccc([N+](=O)[O-])c12)C(N)=O)C(C)C` (some centres not stated), the GI50 in assay [1] was > 100 µM (inactive); in assay [4] it was 70.6 µM (inactive); in assay [2], 91.6 µM (inactive); in assay [5], > 100 µM (inactive); in assay [3] it was 6.7 µM (inactive).
Turning to `COC(=O)C1=C(C(=O)OC)C2(/N=C(\Nc3ccccc3)c3ccccc3)N(c3ccc(OC)cc3)CC(c3ccccc3)N2O1` (configuration not stated), the GI50 in assay [1], in assay [4], in assay [2], in assay [5] and in assay [3] was > 100 µM (inactive) in each case.
For `COC(=O)c1ccc(/C=N/c2cc(C)nn2-c2ccccc2)cc1`, the GI50 is 34.9 µM (inactive) in assay [1]; > 100 µM (inactive) in assay [4]; 49.3 µM (inactive) in assay [2]; 91.2 µM (inactive) in assay [5]; 15.1 µM (inactive) in assay [3].
The matching figures for `Cc1cccc(/C=N/NC(=S)NC2CCCCC2)n1`: 31 µM (inactive), 35.1 µM (inactive), 11.9 µM (inactive), 31.1 µM (inactive) and 11.4 µM (inactive).
Take `CC(=O)OCCn1cnc2c(NCC=C(C)C)ncnc21`: the GI50 in assay [4], in assay [2], in assay [5] and in assay [3] was > 100 µM (inactive) throughout.
As to `CC(C)[C@H]1NC(=O)[C@H]2N=C(S[C@H]2C)[C@@H]2CCCN2C(=O)[C@H](Cc2ccccc2)NC(=O)[C@@H]2CSC(=N2)[C@@H](Cc2ccccc2)NC(=O)[C@@H]2CSC1=N2`, the GI50 in assay [1] was > 50 µM (inactive); in assay [4] it was > 50 µM (inactive); in assay [2], 19.7 µM (inactive); in assay [5], 15.1 µM (inactive); in assay [3], 19.1 µM (inactive).
Take `C/C(=N\n1c(Cc2ccccc2)n[nH]c1=O)c1ccc([N+](=O)[O-])cc1`: the GI50 in assay [1] was > 100 µM (inactive); in assay [4], > 100 µM (inactive); in assay [2], > 100 µM (inactive); in assay [5] it was 64.4 µM (inactive); in assay [3], 21 µM (inactive).
Regarding `Cc1ccc(S(=O)(=O)NN=C2C(C)(C)CC2(C)C)cc1`, the GI50 in assay [4], in assay [2], in assay [5] and in assay [3] was > 100 µM (inactive) each time.
Consider `O=C(CC(O)(C(F)(F)F)C(F)(F)F)C(c1ccccc1)C(O)(C(F)(F)F)C(F)(F)F` (configuration not stated), for which the GI50 is 24 µM (inactive) in assay [1]; > 100 µM (inactive) in assay [4]; 8.87 µM (inactive) in assay [2]; 4.15 µM (inactive) in assay [5]; 45.7 µM (inactive) in assay [3].
Consider `C=C(CBr)CCCOCc1ccccc1`, for which the GI50 in assay [1] was 15 µM (inactive); in assay [4] it was > 10 µM (inactive); in assay [2] it was 20.2 µM (inactive); in assay [3], 30.5 µM (inactive).
For the molecule `N#CC1CCCC2SC(F)(F)C(F)(F)C12` (configuration not stated), the GI50 in assay [1], in assay [4], in assay [2], in assay [5] and in assay [3] was > 100 µM (inactive) in each case.
Regarding `O=S(=O)(c1ccccc1)n1c2ccc(Br)cc2c2nc3ccccc3nc21`, the GI50 in assay [4], in assay [2] and in assay [5] was > 100 µM (inactive) throughout.
For the molecule `CN(CCN(C)C(=S)NN)C(=S)NN`, the GI50 in assay [1], in assay [4] and in assay [5] was > 100 µM (inactive) in each case.
`Cc1cn(CCCCC2=NCCCN2)c(=O)[nH]c1=O`: the GI50 in assay [4] was > 29.4 µM (inactive); in assay [2], > 34.8 µM (inactive); in assay [5], > 34.4 µM (inactive); in assay [3] it was > 26.3 µM (inactive).
As for `O=C(/C=C/c1ccc(O)c(O)c1)OCCOC(=O)/C=C/c1ccc(O)c(O)c1`, the GI50 was 34.4 µM (inactive) in assay [1]; 38 µM (inactive) in assay [4]; 39.8 µM (inactive) in assay [2]; 39.4 µM (inactive) in assay [5]; 34.5 µM (inactive) in assay [3].
Turning to `O=NNc1cnc(O)nc1O`, the GI50 in assay [4], in assay [2] and in assay [3] was > 100 µM (inactive) each time.
On to `CC(=O)Oc1c2oc3cc(O)c(O)cc3c2c(OC(C)=O)c2oc3cc(O)c(O)cc3c12` [POLYOZELLIN], for which the GI50 was 17.1 µM (inactive) in assay [1], 35.3 µM (inactive) in assay [2] and 12.2 µM (inactive) in assay [5].
